Structures can show the parent of a compound that is named as a salt. Where two headings read alike, the source gives them in different places.
How the values were obtained:
Solubility in water = assay type: physicochemical
Excerpt: The compound is referred to in Kaneko et al U.S. Pat. No. 4,785,085 as 6-(2-diethylaminoethyl)rebeccmycin and its preparation is described in Example 1 of the patent and its effectiveness to inhibit growth of tumors in experimental animal systems is shown in Table 3 of the patent. […] Instead, it forms a suspension.
Besides being stable at room temperature, the solutions herein have enhanced solubility at low temperatures, e.g., refrigeration temperatures or cold conditions encountered during shipping or storage, etc.
Pharmaceutically acceptable acid components (c) which meet this solubility criterion include, for example, L-(+)-tartaric, D,L-malic, L-(-)-malic, citric, L-(+)-lactic, lactobionic, methanesulfonic, phosphoric, pyroglutamic, succinic and sulfuric acids. The most preferred acid of these is L-(+)-tartaric acid.

[1] = system: transplanted mouse leukemia P-338
Excerpt: (§1) The screening procedures involved administration of test compound intraperitonially (IP) to CDF1 female mice (18 to 22 grams) infected with 1×10^6 ascites cells intraperitonially, and intravenously (IV) to CDF1 female mice (18 to 22 Grams) infected with 1×10 ascites cells intravenously. Drug therapy was started on Day 1 (date of implant) and consisted of 1 injection per day for 5 successive days. […] Mitomycin C is included for comparison purposes.

[2] = system: transplanted mouse leukemia P-338; conditions: for % T/C (median survival time) / MST (median survival time): IV, 5 daily injections; for AWC (average weight change at Day 5): mouse, in vivo, iv
Excerpt: as §1

[3] = Long term physical stability of aqueous solutions at room temperature; assay type: physicochemical; conditions: one molar equivalent of acid; period less than 2 years at room temperature
Excerpt: These unexpected physical instabilities include gelling, precipitation, cloudiness, and formation of liquid crystalline phases which render solutions of the crystalline salts unsuitable for practical use as, or for dilution with water to provide, injectable solutions.

[4] = IP, 4.8 mg/kg/inj, 5 daily injections

SMILES: CCN(CC)CCN1C(=O)c2c(c3c4cccc(Cl)c4n([C@@H]4O[C@H](CO)[C@@H](OC)[C@H](O)[C@H]4O)c3c3[nH]c4c(Cl)cccc4c23)C1=O
- solubility in water (in words) (Solubility in water; added to water to form an aqueous injectable solution): not sufficiently soluble in water

SMILES: CO[C@@]12[C@H](COC(N)=O)C3=C(C(=O)C(C)=C(N)C3=O)N1C[C@@H]1N[C@@H]12 [Mitomycin C]
- % T/C (median survival time) [1, 4]: 205%
- MST (median survival time) [1, 4]: 20.5 days
- AWC (average weight change at Day 5) ([1]; mouse, in vivo, ip, 4.8 mg/kg): -0.6 Grams
- % T/C (median survival time) ([2]; 1.6 mg/kg/inj): 127%
- MST (median survival time) ([2]; 1.6 mg/kg/inj): 9.5 days
- % T/C (median survival time) ([2]; 4.8 mg/kg/inj): 160%
- MST (median survival time) ([2]; 4.8 mg/kg/inj): 12.0 days
- AWC (average weight change at Day 5) ([2]; 1.6 mg/kg): 0.4 Grams
- AWC (average weight change at Day 5) ([2]; 4.8 mg/kg): -0.1 Grams

SMILES: CCN(CC)CCN1C(=O)c2c(c3c4cccc(Cl)c4n([C@@H]4O[C@H](CO)[C@@H](OC)[C@H](O)[C@H]4O)c3c3[nH]c4c(Cl)cccc4c23)C1=O [hydrochloride salt]
- physical instability / shelf stability of solutions of acid addition salts (in words) [3]: do not form aqueous solutions which are sufficiently shelf stable

SMILES: CCN(CC)CCN1C(=O)c2c(c3c4cccc(Cl)c4n([C@@H]4O[C@H](CO)[C@@H](OC)[C@H](O)[C@H]4O)c3c3[nH]c4c(Cl)cccc4c23)C1=O [succinic]
- solubility (Solubility in water; water, salt formed from free base and a molar equivalent of acid, room temperature, read-out: solubility of acid addition salt in water): > 25 mg/mL

Source: patent US5496809A, “Stable solutions of rebeccamycin analog” (priority 1989, dated 1996)
